Experiments:
V1a (h) = target: T1, V1a (h) (Homo sapiens, UniProt P37288); assay: Off-target receptor binding: V1a
T1 construct: expressed in transfected cells; host or cells: CHO or HEK 293 (not assigned per receptor)
Experimental: (§1) To determine the affinity to the B2-bradykinin receptor, CFMQ was compared to a diverse set of receptors and reference agents in an in vitro assay using cells from rat heart, urinary bladder, cerebral cortex, as well as human recombinant cells (CHO and HEK 293) and other cell lines. Each assay included a ligand at a specific concentration (concentration ranging from 0.007-10 nM), in addition to a non-specific ligand (concentration ranging from […]) for incubation periods ranging from 15 minutes to 6 hours at 4°-37° C. The specific binding to the receptors was defined as the difference between the total binding and the nonspecific binding, determined in the presence of an excess of unlabeled CFMQ. The concentration causing a half-maximal inhibition of control specific binding (IC50 values) and inhibition constants (Ki) were determined, and each reference compound was within the accepted limits of the historic average (±0.5 log units).

BZD (peripheral) = target: T2, BZD (peripheral) (Rattus norvegicus, UniProt P16257); assay: Off-target receptor binding: BZD (peripheral)
T2 construct: from tissue
Experimental: as §1

plasma extravasation [1] = assay: Plasma extravasation (Evans blue in bladder), oral gavage, female WT mice; format: in vivo
Experimental: The efficacy of CFMQ (HGT3711) following orally administration was studied in female WT mice. Eight mice per group received either vehicle or CFMQ (HGT3711) at 1.0, 3.0, 10, or 30 mg/kg by oral gavage. An additional dose group received Firazyr® (icatibant-0.4 mg/kg) as a subcutaneous (SC) injection. Similar to the previous studies, inhibition of EB content in the dried bladder (μg EB per milligram of tissue weight) was utilized as measurement of efficacy.

plasma extravasation [2] = assay: Plasma extravasation (Evans blue in bladder), IV bolus, wild-type mice; format: in vivo, wild-type (WT) C57/BL6 male mice; conditions: for Evans blue (EB) in the bladder: controls 0.7927
Excerpt: In vivo experiments in both wild-type (WT) C57BL/6J mice and C1-inhibited knock out (C1 INH KO) mice measured pharmacodynamic efficacy by the ability of CFMQ to block plasma extravasation, which is causative to edema, the most important symptom requiring treatment in HAE subjects. This plasma extravasation model has been used extensively in the literature to investigate the efficacy of bradykinin receptor antagonists. (Han et al., “Increased vascular permeability in C1 inhibitor-deficient mice mediated by the bradykinin type 2 receptor,” J Clin Invest, 2002 April; 109(8): 1057-1063.)
The uptake and effective blocking of plasma extravasation of CFMQ was examined following IV (intravenous) bolus administration in wild-type (WT) C57/BL6 male mice (n=4/dose group). Mice received CFMQ (HGT3711) (2 μL/g) at 1.0 μg/kg, 100 μg/kg, and/or 6 mg/kg. Following CFMQ administration and prior to the terminal time point, mice received an IV injection of Evans blue (EB) dye (30 mg/kg) and were sacrificed. The bladder was removed, dried and weighed and extracted in formamide (1.0 mL). EB concentration in the formamide extract was determined spectrophotometrically and EB content was calculated as μg EB per milligram of tissue weight. Efficacy was determined by inhibiting the accumulation of EB in the bladder.
CFMQ doses of 0.001, 0.05, 0.1, 0.25, 0.5, 1.0, and or 3.0 mg/kg were administered as IV bolus injections to WT mice (n=8/dose group).

T1 sequence (P37288 whole entry): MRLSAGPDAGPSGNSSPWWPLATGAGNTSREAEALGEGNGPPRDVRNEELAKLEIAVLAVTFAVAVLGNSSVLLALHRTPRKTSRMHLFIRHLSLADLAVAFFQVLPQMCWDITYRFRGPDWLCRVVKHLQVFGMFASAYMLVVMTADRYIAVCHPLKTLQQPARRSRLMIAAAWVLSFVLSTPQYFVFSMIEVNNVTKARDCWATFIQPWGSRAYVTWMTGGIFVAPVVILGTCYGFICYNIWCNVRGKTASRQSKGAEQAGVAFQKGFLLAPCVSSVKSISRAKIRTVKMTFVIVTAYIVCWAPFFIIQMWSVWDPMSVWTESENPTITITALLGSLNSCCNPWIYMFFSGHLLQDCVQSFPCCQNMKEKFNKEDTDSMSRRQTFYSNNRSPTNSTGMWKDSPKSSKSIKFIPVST

SMILES: Cc1cc(Cl)c(COc2cccc3c(-n4cc(F)cn4)cc(C)nc23)c(Cn2cccc(C#N)c2=O)n1 [CFMQ, 1-((4-Chloro-3-(((4-(4-fluoro-1H-pyrazol-1-yl)-2-methylquinolin-8-yl)oxy)methyl)-6-methylpyridin-2-yl)methyl)-2-oxo-1,2-dihydropyridine-3-carbonitrile]
- IC50 (V1a (h)): 1500 nM
- Ki (V1a (h)): 9400 nM
- nH (V1a (h)): 1.3
- inhibition at 10 µM (V1a (h); CFMQ at 10 μM): 51%
- IC50 (BZD (peripheral)): 1400 nM
- Ki (BZD (peripheral)): 1200 nM
- nH (BZD (peripheral)): 1.7
- inhibition at 10 µM (BZD (peripheral); CFMQ at 10 μM): 93%
- plasma value (plasma extravasation [1]; oral 10.0 mg/kg): 267 nM
- inhibition of EB accumulation in the bladder (plasma extravasation [1]; oral 10 mg/kg, female WT mice): ~100%
- efficacy compared with 0.4 mg/kg SC Firazyr (plasma extravasation [1]; oral 10.0 mg/kg, female WT mice): equally effective
- inhibition of EB accumulation in the bladder (plasma extravasation [1]; oral 30 mg/kg, female WT mice): ~100%
- minimally-effective dose (MED) (plasma extravasation [1]; oral gavage, female WT mice): 3.0 mg/kg
- Evans blue (EB) in the bladder (plasma extravasation [2]; IV bolus 1.0 μg/kg): 0.7602 EB mg/kg tissue
- Evans blue (EB) in the bladder (plasma extravasation [2]; IV bolus 6 mg/kg): 0.0701 EB mg/kg tissue
- inhibition of plasma extravasation vs vehicle (plasma extravasation [2]; IV bolus 0.5, 1.0, and or 3.0 mg/kg, n=8): significant inhibition of plasma extravasation
- inhibition of extravasation (plasma extravasation [2]; IV bolus 1.0 and or 100 μg/kg): did not inhibit extravasation
- ED50 (plasma extravasation [2]; Mus musculus, intravenous, WT model, read-out: effective dose (ED50), plasma extravasation): 0.46 mg/kg
- block of plasma extravasation (plasma extravasation [2]; intravenous, high doses (500 μg/kg)): blocked plasma extravasation completely

Reference: patent US20160030416A1, “METHODS OF TREATING B2-BRADYKININ RECEPTOR MEDIATED ANGIOEDEMA” (SHIRE HUMAN GENETIC THERAPIES, INC., priority 2013, published 2016)
